“And” between values parts separate entries of the source, which are not always exact repeats. Equal values may be shown once.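 In this assay, cells in 96-well plates receive the compound at five concentrations for 48 hours. Endpoints are linearly interpolated between the surrounding concentrations. Here, GI50 denotes the concentration required for 50% inhibition of growth. Definition used: TGI = concentration required for complete inhibition of growth.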
Assays:
Test in all cases: DTP human tumour cell line panel, 48 h
HOP-92 NSCLC = tested on: HOP-92 NSCLC
HCC-2998 colon = tested on: HCC-2998 colon
MOLT-4 leukemia = tested on: MOLT-4 leukemia
UACC-257 melanoma = tested on: UACC-257 melanoma
TK-10 renal = tested on: TK-10 renal
NCI-H226 lung = tested on: NCI-H226 lung
PC-3 prostate = tested on: PC-3 prostate
NCI/ADR-RES ovarian = tested on: NCI/ADR-RES ovarian
DU-145 prostate = tested on: DU-145 prostate
SNB-19 CNS = tested on: SNB-19 CNS

SMILES	GI50 (HOP-92 NSCLC)	TGI (HOP-92 NSCLC)	GI50 (HCC-2998 colon)	TGI (HCC-2998 colon)	GI50 (MOLT-4 leukemia)	TGI (MOLT-4 leukemia)	GI50 (UACC-257 melanoma)	TGI (UACC-257 melanoma)	GI50 (TK-10 renal)	TGI (TK-10 renal)	GI50 (NCI-H226 lung)	TGI (NCI-H226 lung)	GI50 (PC-3 prostate)	TGI (PC-3 prostate)	GI50 (NCI/ADR-RES ovarian)	TGI (NCI/ADR-RES ovarian)	GI50 (DU-145 prostate)	TGI (DU-145 prostate)	GI50 (SNB-19 CNS)	TGI (SNB-19 CNS)
O=C(CN1CCN(CCCOc2c(-c3ccccc3)oc3ccccc3c2=O)CC1)Nc1ccc(Cl)cc1C(=O)c1ccccc1Cl	1050 nM	6.6 µM	2260 nM	4.23 µM	3980 nM	66.7 µM	4590 nM	20.5 µM	16.6 µM	54.1 µM	13900 nM	40.2 µM	3.18 µM	21.4 µM	5.74 µM	26.4 µM	19.8 µM	> 100 µM	8.09 µM	> 100 µM
CCOC(=O)c1[nH]c(Br)c(-c2ccc(Br)cc2)c1Br	1580 nM	7.86 µM and 7.98 µM	11600 nM	> 100 µM	–	11.4 µM	597 nM	42.9 µM	2.34 µM	9.99 µM and 11.3 µM	–	6.88 µM	1.25 µM	15.5 µM	0.407 µM	–	2.19 µM	55.8 µM	0.454 µM	10.4 µM
COc1ncc(-c2ccc3nccc(-c4ccnnc4)c3c2)cc1NS(=O)(=O)c1ccc(F)cc1F	1.09 nM and < 10 nM	0.00872 µM and < 0.01 µM	9.97 nM and 13.3 nM	0.275 µM and 0.572 µM	5.05 nM and < 10 nM	0.801 µM and 0.579 µM	6.27 nM and < 10 nM	0.378 µM and 0.0615 µM	0.00325 µM and < 0.01 µM	0.0831 µM and 0.0719 µM	26.9 nM and 20.8 nM	> 3.68 µM and 2.91 µM	0.00432 µM and < 0.01 µM	2.37 µM and 4.46 µM	0.0228 µM and 0.0246 µM	> 8.81 µM and 4.37 µM	0.0119 µM and 0.0164 µM	> 10 µM and 13 µM	0.0397 µM and 0.0127 µM	–
O=C(/C=C/c1cccnc1)NCCCCC1CCCN(C(=O)c2ccccc2)C1 (configuration not stated)	> 100000 nM	> 100 µM	974 nM	> 100 µM	23000 nM	> 100 µM	> 76800 nM	> 100 µM	> 100 µM	> 100 µM	> 79500 nM	> 100 µM	1.47 µM	> 100 µM	0.0103 µM	> 100 µM	< 0.01 µM	> 100 µM	–	> 100 µM
COc1ccccc1CCN=C1NC(=O)/C(=C/c2ccc3ncccc3c2)S1	6020 nM	22.1 µM	8700 nM	> 25 µM	6420 nM	15.7 µM	7520 nM	> 25 µM	4.48 µM	> 21.7 µM	7280 nM	24.7 µM	4.54 µM	> 25 µM	6.21 µM	> 25 µM	7.97 µM	> 25 µM	4.93 µM	> 25 µM
CCOC(=O)N1CCc2cc(OC)c(OC)c3c2c1cc1cc(OC)c(OC)cc13	–	44.8 µM	–	55.6 µM	–	> 100 µM	–	> 81.7 µM	–	> 100 µM	–	> 100 µM	–	> 100 µM	–	5.37 µM	–	> 100 µM	–	> 100 µM
Cc1ccc(/C=C2/SC(Nc3nc(-c4csc(NC5=NC(=O)/C(=C\c6ccc(C)cc6)S5)n4)cs3)=NC2=O)cc1	7030 nM	24.5 µM	7230 nM	27.7 µM	18500 nM	> 50 µM	2810 nM	14.6 µM	8.49 µM	26.6 µM	1580 nM	28 µM	6.52 µM	> 50 µM	14.3 µM	> 50 µM	9.28 µM	> 50 µM	12.6 µM	> 50 µM
COc1cc2c3c(n(CCCN)c(=O)c2cc1OC)-c1cc2c(cc1/C3=C\CCN)OCO2	3690 nM	> 49.4 µM	382 nM	1.77 µM	60.1 nM	–	8290 nM	19.2 µM	4.92 µM	> 28 µM	1450 nM	5.9 µM	4.43 µM	17.8 µM	> 96.1 µM	> 100 µM	2.52 µM	12.7 µM	3.46 µM	> 30.9 µM
Cn1c(/C=C(\C#N)c2ccccc2)nc2c(N3CCOCC3)nc(Cl)nc21	405 nM	2.06 µM	1820 nM	3.33 µM	669 nM	3.12 µM	1430 nM	3.03 µM	1.82 µM	3.24 µM	1520 nM	3.4 µM	0.849 µM	2.99 µM	1.98 µM	7.23 µM	1.28 µM	2.56 µM	1.6 µM	3.09 µM
NC(=S)N/N=C(\Cc1nc2ccc(Cl)cc2[nH]c1=O)C(=O)Nc1ccc(Cl)cc1	–	> 100 µM	–	> 100 µM	–	> 100 µM	–	> 100 µM	–	> 100 µM	–	> 100 µM	–	> 100 µM	–	> 100 µM	–	> 100 µM	–	> 100 µM
COc1c(OC)c(OC)c2c(c1OC)c(=O)c1ccccc1n2C	–	> 100 µM	–	> 100 µM	–	> 100 µM	–	> 100 µM	–	> 100 µM	–	> 100 µM	–	> 100 µM	–	> 100 µM	–	> 100 µM	–	> 100 µM
CC(=O)[C@@]1(O)CC[C@H]2[C@@H]3C[C@H](C)C4=CC(=O)CC[C@]4(C)[C@H]3[C@@H](O)C[C@@]21C	–	> 100 µM	–	> 100 µM	–	> 100 µM	–	> 100 µM	–	> 100 µM	–	> 100 µM	–	> 100 µM	–	> 100 µM	–	> 100 µM	–	> 100 µM
CC1(C)N=C(N)N=C(N)N1c1ccc(OCCCCOc2ccc(S(=O)(=O)F)cc2)c(Cl)c1	671 nM	10.9 µM	485 nM	18.2 µM	135 nM	16.3 µM	581 nM	14.1 µM	1.13 µM	20.7 µM	580 nM	28.1 µM	0.064 µM	11 µM	71.6 µM	> 100 µM	0.194 µM	16 µM	0.259 µM	17.8 µM
N[C@@H]1CCCC[C@H]1N.O=C([O-])C(=O)[O-].[Pt+4]	25500 nM	> 74 µM	618 nM	10 µM	137 nM	15.6 µM	10700 nM	> 81.1 µM	21.2 µM	74 µM	2550 nM	17 µM	17.9 µM	> 100 µM	0.0318 µM	30.4 µM	6.17 µM	> 100 µM	9.85 µM	> 100 µM
N#Cc1nc2c(S(=O)(=O)c3ccccc3)c(N)n(Cc3cccnc3)c2nc1C#N	4710 nM	28.5 µM	> 100000 nM	> 100 µM	> 100000 nM	> 100 µM	> 100000 nM	> 100 µM	26.1 µM	97 µM	28900 nM	> 100 µM	> 100 µM	> 100 µM	92.5 µM	> 100 µM	24.7 µM	> 100 µM	21.9 µM	72.4 µM
COc1ccc(/C=C\c2cc(OC)c(OC)c(OC)c2)cc1OC(=O)c1cccc(Cn2cc(CCOC(=O)[C@H](N)Cc3cn(C)c4ccccc34)nn2)c1	206 nM	> 88.2 µM	19.8 nM	1.7 µM	< 10 nM	18.8 µM	11400 nM	47.6 µM	25 µM	> 100 µM	< 16.9 nM	38.9 µM	< 0.01 µM	> 100 µM	< 0.01 µM	23.5 µM	< 0.01 µM	> 100 µM	< 0.01 µM	> 100 µM
O=C1NC(O)C(c2c[nH]c3ccccc23)=C1c1c[nH]c2ccccc12 (configuration not stated)	4420 nM	> 25 µM	> 25000 nM	> 25 µM	> 25000 nM	> 25 µM	> 25000 nM	> 25 µM	> 25 µM	> 25 µM	> 25000 nM	> 25 µM	24.8 µM	> 25 µM	> 25 µM	> 25 µM	> 25 µM	> 25 µM	> 25 µM	> 25 µM
Cc1cc2nc3c4cc(N)ccc4n(CCN(C)C)c3nc2cc1C	527 nM	5.05 µM	876 nM	3.85 µM	376 nM	> 31.9 µM	1210 nM	5.14 µM	1.99 µM	7.54 µM	896 nM	4.1 µM	0.935 µM	8.67 µM	0.501 µM	9.95 µM	1.11 µM	11.7 µM	0.669 µM	11.4 µM
COc1cc(-c2nn(-c3cccc(NC(=O)Nc4cc(C(F)(F)F)cc(C(F)(F)F)c4)c3)cc2-c2ccncc2)ccc1Cl	107 nM	0.64 µM	1090 nM	2.65 µM	1080 nM	4.48 µM	755 nM	2.21 µM	0.719 µM	2.46 µM	1140 nM	11.7 µM	0.176 µM	1.18 µM	1.02 µM	7.25 µM	0.987 µM	5.59 µM	0.59 µM	4.25 µM
O=C(Nc1cc(Cl)cc(Cl)c1)c1ccc(NC2=C(Cl)C(=O)N(Cc3ccc(Cl)cc3Cl)C2=O)cc1	9320 nM	27.5 µM	15000 nM	36.9 µM	249 nM	1.53 µM	24800 nM	53.1 µM	0.768 µM	26 µM	14400 nM	35 µM	13.1 µM	25.8 µM	29.7 µM	> 100 µM	20.1 µM	50.7 µM	21.4 µM	83.4 µM
COC(=O)C1=C(C(=O)ON)C2C=CC1(C(Cc1ccccc1)Nc1ccccc1)O2 (configuration not stated)	1510 nM	2.91 µM	16900 nM	32.3 µM	2900 nM	9.49 µM	1810 nM	3.34 µM	1.71 µM	3.08 µM	12800 nM	25.6 µM	5.58 µM	19.9 µM	14.7 µM	36.2 µM	2.01 µM	4.18 µM	14.8 µM	27.9 µM
NC(N)=N/N=C\c1cccc(OCc2ccccc2)c1	2050 nM	7.47 µM	1810 nM	3.54 µM	11100 nM	27.8 µM	1820 nM	4.07 µM	12.6 µM	39.1 µM	6740 nM	25.9 µM	11.2 µM	25.1 µM	3.85 µM	22.2 µM	11.4 µM	23.9 µM	10.3 µM	23.3 µM
CC(C)[C@H](CO)Nc1nc(Nc2ccc(C(=O)NCCNS(=O)(=O)c3cccc4c(N(C)C)cccc34)c(Cl)c2)c2ncn(C(C)C)c2n1	2000 nM	> 100 µM	2900 nM	> 100 µM	3510 nM	> 100 µM	2660 nM	> 100 µM	7.62 µM	> 100 µM	2750 nM	> 40 µM	3.56 µM	> 100 µM	> 100 µM	> 100 µM	4.41 µM	> 100 µM	2.93 µM	> 100 µM
CCCc1cc2c(=O)c(C(=O)OC)c[nH]c2cc1N(CC)CC	19200 nM	52.7 µM	76300 nM	> 100 µM	> 100000 nM	> 100 µM	> 100000 nM	> 100 µM	69.1 µM	> 100 µM	34600 nM	> 100 µM	23.3 µM	> 100 µM	24.2 µM	72.8 µM	20.2 µM	49.6 µM	28.6 µM	77.8 µM
CCn1c(CN2CCN(Cc3ccccc3)CC2)nc2cc(NC(=O)c3cccs3)ccc21	12300 nM	40.3 µM	17300 nM	35.6 µM	13200 nM	37.9 µM	–	–	24 µM	70.4 µM	15200 nM	41.5 µM	20.8 µM	> 100 µM	28.9 µM	> 100 µM	32.1 µM	> 100 µM	27.7 µM	> 100 µM

— PubChem BioAssay (NCI)
